Results: ChEMBL document CHEMBL1150068, “Antimalarial activity of sesquiterpenes from the marine sponge Acanthella klethra” (J Nat Prod, 1992)
In brackets after ≈: the same amount, converted by molar mass.

Key:
KB = experiment: Cytotoxicity against human KB cells; assay type: cell-based
Plasmodium falciparum [1] = experiment: Antimalarial activity against chloroquine-resistant Plasmodium falciparum W2; assay type: functional, organism-based
Plasmodium falciparum [2] = experiment: Antimalarial activity against chloroquine-sensitive Plasmodium falciparum D6; assay type: functional, organism-based

SMILES | IC50 (KB) [µg/mL] | IC50 (Plasmodium falciparum [1]) [µg/mL] | IC50 (Plasmodium falciparum [2]) [µg/mL]
C[C@@H]1CC[C@H]2[C@@H](C)C(=O)O[C@@H]3O[C@@]4(C)CC[C@@H]1[C@]32OO4 [ARTEMISININ] | > 20 | 0.00071 (≈ 0.00251 µM) | 0.0041 (≈ 0.0145 µM)
C=C[C@H]1CN2CC[C@H]1C[C@H]2[C@H](O)c1ccnc2ccc(OC)cc12 [QUININE] | > 20 | 0.0238 (≈ 0.0734 µM) | 0.0102 (≈ 0.0314 µM)
OC(c1cc(C(F)(F)F)nc2c(C(F)(F)F)cccc12)C1CCCCN1 (stereo not drawn) [MEFLOQUINE] | – | 0.00049 (≈ 0.0013 µM) | 0.0082 (≈ 0.0217 µM)
C=C(C)[C@@H]1CC[C@@]2(C)CCC[C@@](C)(N=C=S)[C@@H]2C1 | > 20 | > 10 | > 10
[C-]#[N+][C@@H]1[C@H](C(C)C)CC[C@@H](C)[C@@]12C=C(C)CC2 [AXISONITRILE 3] | > 20 | 0.0165 (≈ 0.0713 µM) | 0.142 (≈ 0.614 µM)
C[C@H]1CCC[C@]2(C)CC[C@H](C(C)(C)N=C=S)C=C12 | > 20 | 0.61 (≈ 2.32 µM) | 2.24 (≈ 8.5 µM)
C=C(C)[C@H]1CC[C@@]2(C)CCC[C@@](C)(N=C=S)[C@@H]2C1 | > 20 | 0.55 (≈ 2.09 µM) | 4 (≈ 15.2 µM)
CC1=C[C@]2(CC1)[C@H](C)CC[C@@H](C(C)C)[C@H]2N=C=S | > 20 | 3.11 (≈ 11.8 µM) | 12.3 (≈ 46.8 µM)
